Values after ≈ are worked out from the molar mass of the structure shown. Read-outs that look alike come from different tables or passages of the source. Values belong to the molecule of their own block, whether it stands above or below them.
Assays:
[1] = Stability in simulated gastric fluid (SGF) and simulated intestinal fluid (SIF); assay type: in vitro ADME; settings: SGF with pepsin and SIF with pancreatin pH 6.8, 125 mg/L, 37 °C
Procedure: For the SGF solution, 5 g of pepsin was dissolved in 1 L of deionized water with the addition of hydrochloric acid to achieve a pH of 1.8. The SIF solution consisted of 6.8 g of monopotassium phosphate and 10 g of pancreatin dissolved in 1 L of deionized water, maintaining a pH of 6.8.

[2] = biological target: T1, Caco-2 cell apical membrane-associated alkaline phosphatase (ALP) (Homo sapiens, UniProt P09923); experiment: Dephosphorylation by Caco-2 cell apical membrane-associated ALP; assay type: cell-based; settings: Caco-2 cells, HBSS, 37 °C, 120 min incubation, initial concentration 20 μM, read-out: elimination half-life (T1/2) of dephosphorylation
T1 construct: The Caco-2 cells (human colon adenocarcinoma, clone of Caco-2) were obtained from the Bioresource Collection and Research Center; endogenous in cells; host or cells: Caco-2 (human colon adenocarcinoma) cells, intact, 5 days in culture
T1 sequence (P09923 20-503 limits assumed): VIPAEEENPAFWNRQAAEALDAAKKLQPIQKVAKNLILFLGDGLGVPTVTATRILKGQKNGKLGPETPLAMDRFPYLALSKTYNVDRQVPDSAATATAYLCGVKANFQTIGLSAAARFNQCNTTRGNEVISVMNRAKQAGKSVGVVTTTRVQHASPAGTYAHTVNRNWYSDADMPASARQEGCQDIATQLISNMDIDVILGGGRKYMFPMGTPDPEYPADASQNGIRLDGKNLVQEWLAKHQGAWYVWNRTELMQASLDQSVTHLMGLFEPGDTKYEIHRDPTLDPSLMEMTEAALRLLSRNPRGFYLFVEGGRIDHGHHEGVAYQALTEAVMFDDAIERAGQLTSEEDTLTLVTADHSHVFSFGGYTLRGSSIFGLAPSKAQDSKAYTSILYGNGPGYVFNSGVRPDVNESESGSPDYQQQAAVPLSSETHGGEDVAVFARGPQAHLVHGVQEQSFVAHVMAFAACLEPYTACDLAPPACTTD
Procedure: The Caco-2 cells (human colon adenocarcinoma, clone of Caco-2) were obtained from the Bioresource Collection and Research Center, Hsinchu, Taiwan. Caco-2 cells were cultured according to previously established protocols. For the dephosphorylation study, the cells were seeded onto 6-well plates at a density of 3.0 × 10^5 cells per well in 2 mL of fresh medium. The medium was refreshed every 48 h. […] The plates were then incubated at 37 °C, and aliquots of 200 μL were collected at 15, 30, 60, and 120 min. […] The supernatants were analyzed by HPLC to quantify the relative content of LutPs to Lut and ApnPs to Apn. To assess the activity of human intestinal alkaline phosphatase (ALP), a positive control of fosphenytoin, a phenytoin phosphate prodrug, was used.
The HPLC system employed in this study consisted of the Waters Alliance 2695 separation module (Waters, Milford, MA, USA), a YMC-Pack ODS-AM C18 column (4.6 × 250 mm, 5 µm) with a guard cartridge (Hichrom 5C18, Berkshire, UK) and a Waters 2487 Dual-Absorbance Detector (Waters, Milford, MA, USA). Chromatographic separation was conducted at a temperature of 30 °C, utilizing a linear gradient mobile phase consisting of 0.1% phosphoric acid in H2O (solvent A) and 0.1% phosphoric acid in acetonitrile (solvent B). The elution gradient programs for quantifying each compound are detailed in Supplementary Materials Table S1. Luteolin and its derivatives were detected at a wavelength of 354 nm, while apigenin and its derivatives were detected at a wavelength of 270 nm, and fosphenytoin at 210 nm. The quantitation was conducted using the external standard method with calibration curves, and the quality was ensured by maintaining an R^2 value exceeding 0.99.

[3] = Dissolution study, USP apparatus II (paddle method); assay type: physicochemical; settings: for dissolution rate in bile extract solution: bile extract solution as dissolution medium; for dissolution rate after 60 min: standard dissolution medium, 0.05 M phosphate buffer pH 6.8, 37 °C, 20 μM
Procedure: To investigate the influence of bile extract (comprising bile salts and phospholipids) on the dissolution of these compounds, bile extract solutions were prepared according to the protocol described by Makioka et al. This involved dissolving 12 g of porcine bile extract and 8.4 g of sodium bicarbonate in 1 L of deionized water, which served as the dissolution medium. After the sample was placed in the dissolution medium, 1 mL aliquots of the medium were collected at 5, 10, 20, 30, 45, and 60 min of incubation, and filtered through a 0.2 μm polyethersulfone filter (Pall Corp., New York, NY, USA). Subsequently, 500 μL of each sample was acidified with 5 μL of 2 M acetic acid and stored at −20 °C until HPLC analysis.

[4] = design: method as in doi:10.1016/j.jff.2017.05.056; settings: rats, 20 μmol/kg (5.725 mg/kg) via gavage; cited from earlier work
[5] = cited from earlier work
[6] = Aqueous solubility, classical shake-flask method; settings: ultrapure water
Excerpt: Then, the resulting supernatant (the saturated solution) was aliquoted and diluted carefully and properly to perform the quantitative analysis using HPLC.

[7] = Oral pharmacokinetics of Lut, Lut7G and LutPs in SD rats; assay type: in vivo, Sprague Dawley (SD) rats
Procedure: (§1) (Taipei, Taiwan). and housed individually. The facilities were maintained at 25 °C, at constant humidity, and a 12 h light/dark cycle with ad libitum access to food and water and acclimated for at least 7 days prior to any experiments. Rats were fasted for 24 h before the experiments, with water freely available. For the pharmacokinetic study, rats were randomly assigned to three groups for the tests (n = 4 for Lut-relevant groups; n = 4-5 for Apn-relevant groups). […] The Apn-relevant groups received Apn aqueous suspension, Apn7G aqueous suspension, or ApnPs solution. Dosages were designed as 174.7 μmol/kg for Lut and 185.02 μmol/kg for Apn, based on the human dietary supplement dosage of 500 mg/day, translated by the body surface area index as per FDA guidelines. […] Lut and Apn were quantified in biological samples after enzymatic hydrolysis of their conjugated forms. The plasma was acidified to pH 5 by adding 10 μL of 0.5 M acetate buffer. […] The mixture was fractionated using a Sep-Pak C18 cartridge (Waters, Milford, MA, USA), eluted in order with 0.01 M oxalic acid, water/methanol/0.5 M oxalic acid (88:10:2), distilled water, and 100% methanol. The methanol fraction was adjusted to a constant volume of 500 μL and filtered with a 0.22 μm membrane to remove insoluble matter, and, subsequently, the filtrate underwent UPLC-MS/MS. The levels of Lut and Apn in the plasma were quantified using a Waters ACQUITY UPLC I-Class system (Waters, Milford, MA, USA) equipped with an XEVO TQS-microTriple-Quadrupole Tandem Mass Spectrometer (Waters, Milford, MA, USA). Chromatographic separation was achieved using a Thermo Hypersil GOLD aQ C18 (50 × 2.1 mm, 1.9 μm) column (Thermo Fisher Scientific, Waltham, MA, USA). The injection volume was 3 μL. […] The temperature of the column oven was set at 40 °C. The MRM mode in negative mode was used, and the MS parameter was set as follows. The most intense precursor-to-product transitions were selected: m/z 285→133 for luteolin, and m/z 269→107 and m/z 269→41 for apigenin and genistein, respectively. The source voltage was 1500 V. The desolvation temperature was 400 °C, and the desolvation gas flow was 800 L/h. The source temperature was 150 °C. The contents of Lut and Apn were calculated by the calibration curve and the response obtained by the peak area of them against the internal standard. Details on the multiple reaction monitoring (MRM) conditions, elution gradient programs, and UPLC method validation are provided in the Supplementary Materials Tables S2 and S3. The pharmacokinetic parameters, including maximum concentration (Cmax), time to reach maximum concentration (Tmax), and area under curve (AUC), were determined using the pharmacokinetic software WinNonlin Standard Edition v1.1 (Pharsight Corp., Mountainview, CA, USA).

[8] = Oral pharmacokinetics of Apn, Apn7G and ApnPs in SD rats; assay type: in vivo, Sprague Dawley (SD) rats
Procedure: as §1

[9] = design: method as in PMID 32785007; settings: rats, oral 10 mg/kg; read-out: maximum plasma concentration (Cmax); cited from earlier work
[10] = rat, in vivo, po, 185.02 umol/kg
[11] = rat, in vivo, po, 174.7 umol/kg

SMILES: O=c1cc(-c2ccc(O)c(OP(=O)(O)O)c2)oc2cc(O)cc(O)c12 [Lut3′P, luteolin 3′-O-phosphate]
retained relative content after 240 min of incubation [1]: over 80% | half-life at 20 μM [2]: 41.6 min

half-life at 20 μM [2]: 99.9 min
SMILES: O=C1NC(c2ccccc2)(c2ccccc2)C(=O)N1COP(=O)(O)O [fosphenytoin]

SMILES: O=c1cc(-c2ccc(OP(=O)(O)O)cc2)oc2cc(O)cc(O)c12 [Apn4′P, apigenin 4′-O-phosphate]
retained relative content after 240 min of incubation [1]: over 80% | half-life at 20 μM [2]: 64.1 min

dissolution rate in bile extract solution [3]: 10.2% | dissolution rate after 60 min [3]: 3.5% | solubility [6]: 13 µg/mL (≈ 45.4 µM) | Cmax ([7]; male, Sprague Dawley, 174.7 umol/kg, rat plasma, oral 174.7 µmol/kg, mean ± SE, read-out: aglyconic luteolin Cmax): 140 ± 194 nM | AUC(0-t) ([7]; male, Sprague Dawley, 174.7 umol/kg, rat plasma, oral 174.7 µmol/kg, zero to 8 h, read-out: aglyconic luteolin AUC0–t): 0.635 µM·h | Tmax ([7]; male, Sprague Dawley, 174.7 umol/kg, rat plasma, oral 174.7 µmol/kg, read-out: aglyconic luteolin Tmax): 1 h
SMILES: O=c1cc(-c2ccc(O)c(O)c2)oc2cc(O)cc(O)c12 [Lut, 3′,4′,5,7-tetrahydroxyflavone]
brain tissue concentration [4]: less than 0.1 nmol/g | absolute oral bioavailability [5]: 4.10%

Apn conjugates AUC0–t [8, 10]: 13,243.27 nM·h | Apn conjugates Tmax [8, 10]: 2.00 h | Lut (metabolite) conjugates AUC0–t [8, 10]: 8.78863 µM·h | Lut (metabolite) conjugates Tmax [8, 10]: 2.00 h | aglyconic Apn AUC0–t [8, 10]: 371.71 nM·h | aglyconic Apn Tmax [8, 10]: 30 min | aglyconic Lut (metabolite) AUC0–t [8, 10]: 18.54 nM·h | aglyconic Lut (metabolite) Tmax [8, 10]: 1.00 h | overall Apn AUC0–t [8, 10]: 13,614.98 nM·h | overall Apn Tmax [8, 10]: 2.00 h | overall Lut (metabolite) AUC0–t [8, 10]: 8.87017 µM·h | overall Lut (metabolite) Tmax [8, 10]: 2.00 h
SMILES: O=c1cc(-c2ccc(O)cc2)oc2cc(O[C@@H]3O[C@H](CO)[C@@H](O)[C@H](O)[C@H]3O)cc(O)c12 [Apn7G, apigenin 7-O-glucoside]

AUC0–∞ of overall Lut ([7]; rat, in vivo, po): 35.419 µM·h | aglyconic luteolin AUC0–t [7, 11]: 2009.35 nM·h | aglyconic luteolin Tmax [7, 11]: 1.00 h | luteolin conjugates AUC0–t [7, 11]: 31,336.03 nM·h | luteolin conjugates Tmax [7, 11]: 4.00 h | overall luteolin AUC0–t [7, 11]: 33,111.44 nM·h | overall luteolin Tmax [7, 11]: 2.00 h
SMILES: O=c1cc(-c2ccc(O)c(O)c2)oc2cc(O[C@@H]3O[C@H](CO)[C@@H](O)[C@H](O)[C@H]3O)cc(O)c12 [Lut7G, luteolin 7-O-glucoside]

SMILES: O=c1cc(-c2ccc(O)cc2)oc2cc(OP(=O)(O)O)cc(O)c12 [Apn7P, apigenin 7-O-phosphate]
retained relative content after 240 min of incubation [1]: 76% | half-life at 20 μM [2]: 43.8 min

dissolution rate in bile extract solution [3]: 12.5% | dissolution rate after 60 min [3]: 0.24% | AUC(0-t) ([8]; male, Sprague Dawley, 185.02 umol/kg, rat plasma, oral 185.02 µmol/kg, 0 to 10 h, read-out: aglyconic Apn AUC0–t): 0.113 µM·h | Cmax ([8]; male, Sprague Dawley, 185.02 umol/kg, rat plasma, oral 185.02 µmol/kg, mean ± SE, read-out: aglyconic Apn Cmax): 14 ± 1.27 nM | aglyconic Apn Tmax ([8]; rat plasma, oral 185.02 µmol/kg): 30 min | solubility [6]: 1.2 µg/mL (≈ 4.44 µM)
SMILES: O=c1cc(-c2ccc(O)cc2)oc2cc(O)cc(O)c12 [Apn, 4′,5,7-trihydroxyflavone]
absolute oral bioavailability [5]: 0.71% | Cmax [9]: 80 nM

SMILES: O=c1cc(-c2ccc(O)c(O)c2)oc2cc(OP(=O)(O)O)cc(O)c12 [Lut7P, luteolin 7-O-phosphate]
retained relative content after 240 min of incubation [1]: 73% | half-life at 20 μM [2]: 17.2 min

SMILES: O=c1cc(-c2ccc(OP(=O)(O)O)c(O)c2)oc2cc(O)cc(O)c12 [Lut4′P, luteolin 4′-O-phosphate]
retained relative content after 240 min of incubation [1]: over 80% | half-life at 20 μM [2]: 27.8 min

From article PMC11727040, “Monophosphate Derivatives of Luteolin and Apigenin as Efficient Precursors with Improved Oral Bioavailability in Rats” (Antioxidants, 2024)
